“Also recorded” adds a separate entry of the source.
Experiments:
[1] = test system: LEW rats transplanted with DA livers; test: Allogeneic orthotopic liver transplant (OLT) model: survival, histology, sGOT; assay type: in vivo, rat
Experimental: Ad-HO-1 transduction in OLT model. Male Dark-Agouti (DA; RT1^3) and Lewis (LEW; RT1′) rats of 10-16 weeks of age were purchased from Harlan Sprague Dawley, Inc. (San Diego, Calif.), and maintained under conditions approved by the UCLA Chancellor's Animal Research Committee (CARC). All animals were housed in microisolator cages in a virus free facility and fed laboratory chow ad libitum. Orthotopic liver transplants were performed between DA donors and LEW rat recipients, as described previously. Amersi et al., supra; Kato et al., Am. J. Transplant 1:121-28 (2001). Ex-vivo gene transfer into liver grafts was performed during cold preservation (4° C.) via perfusion of the portal vein with 2 ml of cold lactated Ringer's solution containing 5×10^10 pfu (plaque-forming unit) of Ad-HO-1. Control grafts were perfused with 5×10^10 pfu of Ad-β-gal. Animals were followed for survival. Separate groups of recipients were sacrificed at day 3, 7 and 10 post-transplant, OLTs were harvested for histological evaluation, whereas blood samples were collected for measurement of sGOT levels.
Methylene chloride treatment in OLT model To investigate whether CO represents a functional downstream HO-1 mediator in this system, methylene chloride was used as a carbon monoxide generator. As indicated above, the metabolism of MC is known to result in the exclusive production of CO2 and CO. Gargas et al., supra. LEW rats transplanted with DA livers were fed with methylene chloride (500 mg/kg) 2 hr prior to the transplant, followed by a 2-week post-transplant course (500 mg/kg/day). The blood CoHb levels in experimental animals were measured at day 0, 5, and 10. Animal survival was screened and OLTs were analyzed histologically.
Histology. Liver allografts were harvested at day 3, 7 and 10 post-transplant. The tissue was sliced into small pieces, preserved in 10% neutral-buffered formalin, cut into 5-μm section, and stained with hematoxylin and eosin (H&E) by standard methods.

[2] = cited from earlier work
[3] = test system: rat liver; test: Histologic severity of I/R injury, Banff criteria; set-up: species or system Sprague Dawley (SD) rats; conditions: CO, scale 1-4
Excerpt: Histology. Liver specimens were fixed in a 10% buffered formalin solution and embedded in paraffin. Sections were made at 4 μm and stained with H&E. The histologic severity of I/R injury was graded using International Banff Criteria (Int'l Banff Schema Conference Worksheet, The Third Int'l Banff Conference on Allograft Pathology, June 21-25 (1995)). Using these criteria, lobular disarray and ballooning changes are graded from 1-4, where no change is given a score of 1 and severe disarray or ballooning changes are given a score of 4.

[4] = test system: Myeloperoxidase (MPO); test: Myeloperoxidase (MPO) assay, neutrophil activity in liver tissue; set-up: species or system Sprague Dawley (SD) rats; conditions: liver tissue at conclusion of 2 h reperfusion with CO
Experimental: Myeloperoxidase (MPO) assay. MPO is a naturally occurring constituent of neutrophils and is used as a marker for neutrophil infiltration. Frozen tissue samples were thawed and suspended in an iced solution of 0.5% hexadecyltrimethyl-ammonium (Sigma) and 50 mMol potassium phosphate buffer solution (Sigma) with pH adjusted to 5. Samples are homogenized for 30 sec, centrifuged at 15,000 rpm for 15 min at 4° C. 0.1 ml of the supernatant was then mixed in solution of hydrogen peroxide-sodium acetate and tetramethyl benzidine (Sigma). The change in absorbance at 460 run was measured with a Beckman DU spectrophotometer (Beckman Institute, Fullerton, Calif.). The quantity of enzyme degrading 1 μMol peroxide per minute at 25° C. per gram of tissue was defined as one unit of MPO activity.

[5] = test system: HO-1; test: Western blot of liver samples, HO-1; set-up: species or system rat; conditions: 2 h after perfusion
Experimental: Western blots. Protein was extracted from liver samples with PBSTDS buffer (50 mM Tris, 150 mM NaCl, 0.1% SDS, 1% sodium deoxycholate, and 1% triton X-100, pH 7.2). Proteins (30 μg/sample) in SDS-loading buffer (50 mM Tris, pH 7.6, 10% glycerol, 1% SDS) were subjected to 12% SDS-polyacrylamide gel electrophoresis and transferred to nitrocellulose membrane (Bio-Rad, Hercules, Calif.). The gel was stained with coomassie blue to document equal protein loading. The membrane was blocked with 3% dry milk and 0.1% Tween 20 (USB, Cleveland, Ohio) in PBS and incubated with rabbit anti-rat HO-1 or iNOS polyclonal Abs (SangStat, Fremont, Calif.). Relative protein quantities were determined using a densitometer (Kodak Digital Science 1D Analysis Software, Rochester, N.Y.).

Structure (SMILES) | hepatic parenchyma viable / preserved ([1]; OLT by day 10 post-transplant) | histological grade of rejection ([1]; OLT by day 10 post-transplant) | recipients/livers surviving >120 days ([1]; allogeneic OLT) | mean survival time [MST]±SD ([1]; allogeneic OLT, vectors 5×10^10 pfu ex vivo perfusion, methylene chloride 500 mg/kg/day × 14 days) [days] | rat recipients surviving >3 weeks ([1]; daily feedings with methylene chloride alone) | tolerability of regimen ([1]; methylene chloride 500 mg/kg/day × 14 days, OLT recipients) | Mean (days) recipient survival ([1]; treatment protocol as in Table 1) [days] | HbCO generated ([2]; 500 mg/kg MC per os) | half life of metabolism ([2]; 500 mg/kg MC per os) | toxicity on repeated administration ([2]; 500 mg/kg for 4 weeks, rats) | maximal COHb values in venous or aortic blood ([2]; 500 mg/kg orally) [% COHb] | portion of the compound converted into carbon monoxide ([2]; rat, in vivo) | Banff score of I/R injury ([3]; 1 h reperfusion) | Banff score of I/R injury ([3]; 2 h reperfusion) | MPO activity [4] [U/mg] | HO-1 protein accentuated (Western blot) vs air alone [5]
ClCCl [methylene chloride] | more than 80% | mild to moderate rejection | two out of seven | > 47 ± 46 | ca. 50% | well tolerated and no side effects were noted; also recorded: well tolerated | >47 | around 10% | about 3 h | did not induce major body weight, biochemical or histological changes | 10 | 50-80% | – | – | – | –
[C-]#[O+] [CO, carbon monoxide] | – | – | – | – | – | – | – | – | – | – | – | – | 1.2±0.31 | 2.0±0.12 | 1.3±0.2 | ca. 3 fold
